Results as given in PMC10535741, “Styrylpyridinium Derivatives for Fluorescent Cell Imaging” (Pharmaceuticals, 2023).

Key:
[1] = tested on: Saos-2 (human osteosarcoma); test: in vitro; assay type: cell-based
From the text: (§1) For selected compounds, 6a–6f, we performed a determination of the cytotoxicity in a wider variety of cancer and non-cancerous cell lines (see Table S2, Supplementary Materials) in order to learn the characteristic features of selectivity or the similarity of biological properties.
(§2) The HT-1080 (human connective tissue fibrosarcoma, ATCC® CCL-121™), MH-22A (mouse hepatocarcinoma, ECACC Cat. No. 96121721), A-549 (human lung carcinoma, ATCC® CCL-185™), NIH3T3 (Swiss Albino mouse embryo fibroblast, ECACC Cat. No. 93061524), Hek293 (human embryonic kidney, ATCC® CRL-1573™), BHK-21 (Syrian hamster kidney, ATCC® CCL-10™), A-431 (human epidermoid carcinoma, ATCC® CRL-1555™), Saos-2 (human osteosarcoma, ATCC® HTB-85™), HeLa (human epitheloid cervix carcinoma, ATCC® CCL-2™), U937 (human myeloid leukaemia, ATCC® CRL-1593.2™), C6 (rat glioma, ATCC® CCL-107™), and B16-F10 (murine melanoma, ATCC® CRL-6475™) cell lines were obtained from the American Type Culture Collection (ATCC) and European Collection of Authenticated Cell Cultures (ECACC).
(§3) HT-1080, MH-22A, A-549, NIH3T3, BHK-21, A-431, HeLa, and B16-F10 cells were cultured in Dulbecco’s Modified Eagle’s Medium (DMEM) with 2 mM glutamine and 10% foetal bovine serum (FBS). Hek293 cells were cultured in Eagle’s Minimum Essential Medium with 10% foetal bovine serum. U937 cells were cultured in RPMI-1640 Medium with 2 mM glutamine and 10% foetal bovine serum. C6 cells were cultured in Ham’s F12 Medium with 2 mM glutamine and 10% foetal bovine serum. Saos-2 cells were cultured in McCoy’s 5a Medium with 2 mM glutamine and 10% foetal bovine serum. The cells were incubated at 37 °C with 5% CO2, 95% air, and complete humidity. Once ~90% confluence was reached, they were detached using 0.05% trypsin/EDTA and counted. The cells were plated at optimally determined densities for the logarithmic phase of growth. These cells were then suspended at a concentration of 4000 cells/well for HT-1080, MH-22A, A-549, NIH3T3, BHK-21, A-431, HeLa, B16-F10, Hek293, and Saos-2 cells and a concentration of 9000 cells/well for U937, C6, Hek293, and GM08402 cells and added onto a 96-well plate. For background absorption, some wells remained cell free, i.e., as a blank control. Cells were incubated for 72 h at 37 °C and 5% CO2 where they were exposed to a media containing serial dilutions of the investigated compounds (n = 3). Cell viability was measured using the 3-(4,5-dimethylthiazol-2-yl)-2,5-diphenyl-tetrazolium bromide (MTT) assay. In brief, after incubating with compounds, the culture medium was removed and fresh medium with 0.2 mg/mL MTT was added to each well of the plate. After incubation (3 h, 37 °C, 5% CO2), the medium with MTT solution was removed and replaced with 200 µL DMSO and 25 µL Sorenson’s glycine buffer (glycine 0.1 M, NaCl 0.1 M, pH: 10.5 with 0.1 M NaOH). The plate was shaken for 15 min at room temperature and the optical density (OD) of the wells was determined using a multichannel spectrophotometer (Thermo Scientific Multiskan EX) at 540 nm. The quantity of the control cells was taken in calculations as 100%. The IC50 value was calculated using the program Graph Pad Prism® 3.0.
(§4) The HT-1080 (human connective tissue fibrosarcoma, ATCC® CCL-121™), MH-22A (mouse hepatocarcinoma, ECACC Cat.No. 96121721), A-549 (human lung carcinoma, ATCC® CCL-185™), NIH 3T3 (mouse Swiss Albino embryo fibroblast, ECACC Cat.No. 93061524), Hek293 (human embryonic kidney, ATCC® CRL-1573™), BHK-21 (hamster Syrian kidney, ATCC® CCL-10™), A-431 (human epidermoid carcinoma, ATCC® CRL-1555™), Saos-2 (human oste osarcoma, ATCC® HTB-85™) HeLa (human epitheloid cervix carcinoma, ATCC® CCL-2™), U937 (human myeloid leukaemia, ATCC® CRL-1593.2™), C6 (rat glioma, ATCC® CCL-107™), B16-F10 (murine melanoma, ATCC® CRL-6475™) cell lines were obtained from American Type Culture Collection (ATCC) and European Collection of Authenticated Cell Cultures […]
(§5) Table S2. […]

[2] = tested on: A-549 (human lung carcinoma); test: in vitro; assay type: cell-based
From the text: as §1, §2, §3, §4, §5

[3] = tested on: A-431 (human epidermoid carcinoma); test: in vitro; assay type: cell-based
From the text: as §1, §2, §3, §4, §5

[4] = tested on: Hek293 (human embryonic kidney); test: in vitro; assay type: cell-based
From the text: as §1, §2, §3, §4, §5

[5] = tested on: HeLa (human epitheloid cervix carcinoma); test: in vitro; assay type: cell-based
From the text: as §1, §2, §3, §4, §5

[6] = tested on: U937 (human myeloid leukaemia); test: in vitro; assay type: cell-based
From the text: as §1, §2, §3, §4, §5

[7] = tested on: BHK-21 cells; test: Cell passaging assay, flow cytometry on day 6; assay type: cell-based, Syrian hamster; conditions: BHK-21, passaged twice, six days of culture; 25 μM 6e or 1 μM Deep Red
Description: In order to assess the stability of staining after prolonged cell culture, the stained BHK-21 cells (Day 1) were passaged twice (Days 2 and 4) and cultured for six days in total (Day 6, Figure 4). On day 6, the cells were collected and analysed by flow cytometry. […] It can be concluded that, in contrast to the Deep Red cell tracker, SP compound 6e effectively stains cells and can be used for up to 6 days of cell culture.
For the cell passaging, on day 0, BHK-21 cells were plated on a 6-well plate with a seeding density of 1.5 × 10^5 cells per well. On day 1, the cells were stained with 25 μM compound 6e or 1 μM CellTracker™ Deep Red dye as described above. […] On day 6, cells were collected for flow cytometry analysis. The cells were kept at 4 °C and analysed as described above.

[8] = in vitro; conditions: mouse
Description: (§6) In this study, we used murine bone-marrow-derived macrophages (BMDMs) to evaluate the staining potential of the 6e compound in primary immune cells. […] To assess toxicity, the BMDMs were stained with various concentrations (0.1–100 μM) of compound 6e, and after 24 h, cell viability was measured using the CCK-8 assay (Figure 5).
(§7) To determine the cytotoxicity of the SP compound 6e, the cells were stained with various concentrations of the dye (0, 0.1, 1, 5, 10, and 100 μM). Briefly, 2 × 10^4 cells were plated in a 96-well plate in 100 μL of the medium. After 24 h, the cells were washed once and a solution of compound 6e in PBS was added to the cells. The cells were incubated in a humidified 5% CO2 incubator at 37 °C for 15–20 min. Then, the dye solution was replaced with medium. […] After 24 h, the medium was replaced with 10 μL of CCK-8 reagent in 100 μL of fresh medium. The cells were incubated in a humidified 5% CO2 incubator at 37 °C for 1–4 h. The absorbance at 450 nm was measured using a microplate spectrophotometer (BioTek Instruments, Winooski, VT, USA). Cell viability was calculated as a percentage of non-treated cell absorbance. IC50 values were calculated as the concentration at which 50% of the cells were viable.

[9] = tested on: murine bone-marrow-derived macrophages (BMDMs); test: cells; conditions: Mus musculus, BMDM, 24 h, read-out: IC50 (BMDM viability)
Description: as §6, §7

Question: With CCCCCCCCCCCCCCCC[n+]1ccc(C=Cc2cc(OC)c(OC)c(OC)c2)cc1.[Br-] [Compound 6b] as the compound, how does the “Cytotoxicity IC50 Saos-2” value [1] read?
Answer: Its value is 0.60 µg/mL.

Question: And the “Cytotoxicity IC50 A-549” value [2]?
Answer: Its value is 0.98 µg/mL.

Question: And the “Cytotoxicity IC50 A-431” value [3]?
Answer: Its value is 1.10 µg/mL.

Question: What about the “Cytotoxicity IC50 Hek-293” value [4] of the same compound?
Answer: Its value is 0.38 µg/mL.

Question: And the “Cytotoxicity IC50 HeLa” value [5]?
Answer: The value was 0.82 µg/mL.

Question: What about the “Cytotoxicity IC50 U937” value [6] of the same compound?
Answer: Its value is 1.39 µg/mL.

Question: With CCCCCCCCCCCCCCCC[n+]1ccc(C=CC=Cc2cc3c4c(c2)CCCN4CCC3)cc1.[Br-] [Compound 6e, 1-hexadecyl-4-(4-(2,3,6,7-tetrahydro-1H,5H-pyrido[3,2,1-ij]quinolin-9-yl)buta-1,3-dien-1-yl)pyridin-1-ium bromide] as the compound, how does the “positive fluorescent cells on day 6” value [7] read?
Answer: The value was 15.0 ± 0.7%.

Question: What about the viability at 24 h, 5 µM [8] of the same compound?
Answer: Its viability at 24 h, 5 µM is 79.1 ± 1.2%.

Question: And the IC50 [9]?
Answer: The IC50 was 9.2 ± 1.5 µM.
